Assay results as given in patent publication US9034918B2, “Composition including at least one trans-cinnamaldehyde and the use thereof in the treatment of bacterial infections, specifically in the treatment of nosocomial infections” (SEPTEOS, priority 2009, dated 2015).

Experiments:
Type in all cases: cell-based
Enterococcus strain 8152 = test: Antibiogram by diffusion technique (CA-SFM 2008); parameters: Diameter: unit not given here
From the text: (§1) Three clinical categories were selected for interpretation of the in vitro sensitivity tests: sensitive (S), resistant (R) and intermediate (I). • The strains categorized S are those for which the probability of therapeutic success is high in the case of treatment by systemic route with the dosing schedule recommended in the summary of product characteristics (SPC) prepared by the French Health Products Safety Agency (AFSSAPS). • The strains categorized R are those for which there is a high probability of therapeutic failure regardless of treatment type and antibiotic dose. • The strains categorized I are those for which therapeutic success cannot be predicted. These strains form a heterogeneous group for which the results obtained in vitro are not predictive of therapeutic success. […] The intermediate category is also a buffer zone which takes into account technical and biological uncertainties.
(§2) The sensitivity of strains to antibiotics was determined by a diffusion technique according to the 2008 recommendations by the Antibiogram Committee of the French Microbiology Society (CA-SFM).
(§3) In terms of critical concentrations and diameters, strains are categorized as follows: • sensitive (S): strains for which the MIC of the antibiotic tested is less than or equal to the lower critical concentration c, which is equivalent to a diameter greater than or equal to the critical diameter D; • resistant (R): strains for which the MIC of the antibiotic tested are greater than the upper critical concentration C, corresponding to a diameter less than the critical diameter d; • intermediate sensitivity (I): strains for which the MIC of the antibiotic tested and the corresponding diameter are between the two critical concentrations and the two critical diameters.
(§4) The tests were carried out on Mueller-Hinton agar. An inoculum adjusted to 0.5 on the McFarland scale is then diluted to 1/100. Petri dishes are inoculated by swabbing. The dishes are read after 24 hours of incubation at 37° C.
(§5) The raw results are then interpreted according to the interpretative reading rules of the CA-SFM.

Enterococcus strain 8153 = test: Antibiogram by diffusion technique (CA-SFM 2008); parameters: Diameter: unit not given here
From the text: as §1, §2, §3, §4, §5

[1] = system: Enterococcus faecium (9001); test: Antibiogram by diffusion technique (CA-SFM 2008); details: strain 9001
From the text: as §1, §2, §3, §4, §5

[2] = system: strain 9010, Acinetobacter baumannii, with VEB-1 ESBL; test: Antibiogram by diffusion technique (CA-SFM 2008)
From the text: as §1, §2, §3, §4, §5

[3] = system: strain 9007, Pseudomonas aeruginosa, with VIM-2 carbapenemase; test: Antibiogram by diffusion technique (CA-SFM 2008)
From the text: as §1, §2, §3, §4, §5

[4] = system: Pseudomonas aeruginosa strain 8128; test: Antibiogram by diffusion technique (CA-SFM 2008); parameters: D: unit not given here
From the text: as §1, §2, §3, §4, §5

[5] = system: Pseudomonas aeruginosa strain 8129; test: Antibiogram by diffusion technique (CA-SFM 2008); parameters: D: unit not given here
From the text: as §1, §2, §3, §4, §5

[6] = system: Pseudomonas aeruginosa strain 8134; test: Antibiogram by diffusion technique (CA-SFM 2008); parameters: D: unit not given here
From the text: as §1, §2, §3, §4, §5

E. coli strain 8155 = test: Antibiogram by diffusion technique (CA-SFM 2008); parameters: D: unit not given here
From the text: as §1, §2, §3, §4, §5

[7] = system: golden staph (S. aureus) strain 8239; test: Antibiogram by diffusion technique (CA-SFM 2008); parameters: D: unit not given here
From the text: as §1, §2, §3, §4, §5

[8] = system: golden staph (S. aureus) strain 8240; test: Antibiogram by diffusion technique (CA-SFM 2008); parameters: D: unit not given here
From the text: as §1, §2, §3, §4, §5

E. coli strain 8154 = test: Antibiogram by diffusion technique (CA-SFM 2008); parameters: D: unit not given here
From the text: as §1, §2, §3, §4, §5

[9] = system: Pseudomonas aeruginosa strain 8132; test: Antibiogram by diffusion technique (CA-SFM 2008); parameters: D: unit not given here
From the text: as §1, §2, §3, §4, §5

[10] = system: golden staph (S. aureus) strain 8147; test: Antibiogram by diffusion technique (CA-SFM 2008); parameters: D: unit not given here
From the text: as §1, §2, §3, §4, §5

E. coli strain 8157 = test: Antibiogram by diffusion technique (CA-SFM 2008); parameters: D: unit not given here
From the text: as §1, §2, §3, §4, §5

E. coli strain 8156 = test: Antibiogram by diffusion technique (CA-SFM 2008); parameters: D: unit not given here
From the text: as §1, §2, §3, §4, §5

E. coli ATCC 25922 = test: Antibiogram by diffusion technique (CA-SFM 2008); parameters: Diameter (D): unit not given here
From the text: Three clinical categories were selected for interpretation of the in vitro sensitivity tests: sensitive (S), resistant (R) and intermediate (I). • The strains categorized S are those for which the probability of therapeutic success is high in the case of treatment by systemic route with the dosing schedule recommended in the summary of product characteristics (SPC) prepared by the French Health Products Safety Agency ([…]). • The strains categorized R are those for which there is a high probability of therapeutic failure regardless of treatment type and antibiotic dose. • The strains categorized I are those for which therapeutic success cannot be predicted. These strains form a heterogeneous group for which the results obtained in vitro are not predictive of therapeutic success. […] The intermediate category is also a buffer zone which takes into account technical and biological uncertainties. The sensitivity of strains to antibiotics was determined by a diffusion technique according to the 2008 recommendations by the Antibiogram Committee of the French Microbiology Society (CA-SFM). In terms of critical concentrations and diameters, strains are categorized as follows: • sensitive (S): strains for which the MIC of the antibiotic tested is less than or equal to the lower critical concentration c, which is equivalent to a diameter greater than or equal to the critical diameter D; • resistant (R): strains for which the MIC of the antibiotic tested are greater than the upper critical concentration C, corresponding to a diameter less than the critical diameter d; • intermediate sensitivity (I): strains for which the MIC of the antibiotic tested and the corresponding diameter are between the two critical concentrations and the two critical diameters. The tests were carried out on Mueller-Hinton agar. An inoculum adjusted to 0.5 on the McFarland scale is then diluted to 1/100. Petri dishes are inoculated by swabbing. The dishes are read after 24 hours of incubation at 37° C. The raw results are then interpreted according to the interpretative reading rules of the CA-SFM. Two examples: all strains of methicillin-resistant Staphylococcus are resistant to all beta-lactams, and the same is true for gentamicin-resistant strains; golden staph is necessarily resistant to kanamycin (and amikacin) and tobramycin. The quality of the diffusion method is controlled using E. coli strain ATCC 25922.

[11] = system: Gram-positive bacteria and Gram-negative bacteria, resistant strains; test: Agar test, summary over the strains tested; details: also on resistant strains, low volume concentrations
From the text: For bacteria to have good accessibility (aqueous phase multiplication only) to essential oils, it is essential to find a method of aqueous phase solubilization. This step is neglected in much work that directly uses the lipid phase, which is inaccessible to bacteria (oil-soaked disc placed on agar). Moreover, for the topical use of oils, this solubilization phase is also essential, and with the goal of practical application, surfactants and solubilization adjuvants are also selected for their satisfactory cutaneous tolerance.
The final preparation includes: 1.0 ml of essential oil, 3.4 ml of Tween 80 and 5.6 ml of 10% molar propylene glycol aqueous solution.
The day before the test, inoculate the strains in BH medium and on tilted MHA. Prepare test tubes containing 19 ml and 18 ml of MHA. Prepare test tubes containing 5 ml of 10% molar propylene glycol for the various dilutions.
On the day of the test, solubilize the trans-cinnamaldehyde as follows: • 1 ml of trans-cinnamaldehyde • 3.4 ml of Tween 80 • 5.6 ml of 10% molar propylene glycol.
When the trans-cinnamaldehyde is solubilized, prepare successive 1/2 dilutions in 10% molar propylene glycol.
Add 1 ml of suitable dilutions in the test tubes containing 19 ml of medium, homogenize well and pour into Petri dishes. […]

E. coli strain 9003 = test: Antibiogram by diffusion technique (CA-SFM 2008)
From the text: as §1, §2, §3, §4, §5

[12] = system: Enterobacter aerogenes (9004); test: Antibiogram by diffusion technique (CA-SFM 2008); details: strain 9004
From the text: as §1, §2, §3, §4, §5

## C[C@H]1COc2c(N3CCN(C)CC3)c(F)cc3c(=O)c(C(=O)O)cn1c23 [Levofloxacin]
Enterococcus strain 8152
  Category: S
  Diameter: 29
Enterococcus strain 8153
  Category: S
  Diameter: 26
[1]
  Category: R
[2]
  Category: R
[3]
  Category: S
[4]
  Cat.: S
  D: 23
[5]
  Cat.: S
  D: 26
[6]
  Cat.: R
  D: 0
E. coli strain 8155
  Cat.: S
  D: 31
[7]
  Cat.: R
  D: 10
[8]
  Cat.: R
  D: 0
E. coli strain 8154
  Cat.: S
  D: 36
[9]
  Cat.: R
  D: 0
[10]
  Cat.: R
  D: 10
E. coli strain 8157
  Cat.: R
  D: 11
E. coli strain 8156
  Cat.: S
  D: 31
E. coli ATCC 25922
  Category (Cat.): S
  Diameter (D): 31

## O=C/C=C/c1ccccc1 [trans-cinnamaldehyde]
[11]
  Spectrum of antibacterial activity: antibacterial activity on both Gram-positive bacteria and Gram-negative bacteria

## Gentamicin
Enterococcus strain 8152
  Category: R
  Diameter: 15
Enterococcus strain 8153
  Category: R
  Diameter: 14
[1]
  Category: S
[2]
  Category: R
[3]
  Category: S
E. coli strain 9003
  Category: S
[12]
  Category: S
[4]
  Cat.: S
  D: 27
[5]
  Cat.: S
  D: 21
[6]
  Cat.: R
  D: 0
E. coli strain 8155
  Cat.: S
  D: 21
[7]
  Cat.: S
  D: 28
[8]
  Cat.: S
  D: 27
E. coli strain 8154
  Cat.: S
  D: 21
[9]
  Cat.: R
  D: 16
[10]
  Cat.: S
  D: 26
E. coli strain 8157
  Cat.: S
  D: 25
E. coli strain 8156
  Cat.: S
  D: 25
E. coli ATCC 25922
  Category (Cat.): S
  Diameter (D): 25
